Test results published in patent US20240247042A1, “GLUCAGON LIKE PEPTIDE COMPOUNDS” (Novartis AG, priority 2021, published 2024).
Values belong to the molecule of their own block, whether it stands above or below them.

Experiments:
[1] = target: cynomolgus GLP1 receptor (cynoGLP1R), on HEK293-cynoGLP1R F6 cells (cynomolgus) (UniProt F8V479); assay: cell-based or functional assay
human GLP1R (hGLP1R) [2] = target: T1, human GLP1R (hGLP1R) (Homo sapiens, UniProt P43220); assay: Human GLP1R cAMP agonist assay (GloSensor); assay type: cell-based
Target sequence in this assay (P43220 24-463): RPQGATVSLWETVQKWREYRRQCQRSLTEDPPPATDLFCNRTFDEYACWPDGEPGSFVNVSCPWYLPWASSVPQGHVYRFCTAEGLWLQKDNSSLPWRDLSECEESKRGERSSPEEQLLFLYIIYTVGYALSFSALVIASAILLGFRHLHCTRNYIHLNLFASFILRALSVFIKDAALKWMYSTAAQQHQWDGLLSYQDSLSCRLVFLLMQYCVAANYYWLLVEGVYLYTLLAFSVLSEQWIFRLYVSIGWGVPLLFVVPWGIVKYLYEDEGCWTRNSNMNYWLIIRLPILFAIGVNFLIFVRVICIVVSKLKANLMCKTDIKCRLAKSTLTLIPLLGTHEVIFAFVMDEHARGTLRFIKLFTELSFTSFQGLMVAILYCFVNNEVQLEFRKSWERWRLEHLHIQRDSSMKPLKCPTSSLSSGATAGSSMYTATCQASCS
Procedure: Compounds described herein were tested in the following cellular assays that measures the intracellular cAMP concentration. The cAMP is generated by the activation of GLP1R. EC50 is defined as the concentration of the compound that leads to half of the maximum response (after baseline correction).
The agonist activity of compounds was determined using the GloSensor™ cAMP Assay (Promega Corp.), which measures changes in the intracellular concentration of cAMP after ligand activation of GPCRs. The assay uses a biosensor encoded by pGloSensor™-22F cAMP plasmid (Promega, cat #E2301) with cAMP binding domains fused to a mutant form of Photinus pyralis luciferase. Binding to cAMP causes conformational changes that promote large increases in light output, which can be measured by a luminescence detector. […] The assay was started the following morning by adding an equal volume of CO2-independent media containing 4% v/v dilution of the GloSensor substrate (Promega, cat #E1291) to all wells. The cell plate was incubated at RT for 2 h in the dark. The Biomek i7 (Beckman Coulter) instrument was used for the liquid handling steps. To generate duplicate dose response curves, 3-fold serially diluted compounds were added in to the cell assay plate to a final volume of 60 μL with final concentrations ranging from 100 nM through 0.03 pM in CO2-independent media containing 0.1% BSA, 0.5 mM IBMX and 0.4% DMSO. […] Curve fitting for EC50 determinations was performed in the Helios module of the software package DAVID. The 4-parameter logistic model, Hill slope was used: y=Ainf+(A0−Ainf)/(1+(x/AC50)^Hill Slope), where y is the functional response; x is the compound concentration; A0 is the minimum value (at 0 dose); Ainf is the maximum value (at infinite dose); AC50 corresponds to the point of inflection (i.e., the point on the sigmoid shaped curve halfway between A0 and Ainf). The EC50 value was represented by the AC50 value calculated from Helios in μM. Emax is the maximal activity detected within the concentration range, derived from the fitted curve.
The HEK293-SNAP-hGLP1R stable cell clone that yielded the desired response was used for human GLP1R cAMP agonist assay.

human GLP1R [3] = target: T2, human GLP1R (Homo sapiens, UniProt P43220); assay: Human GLP1R DERET internalization assay; assay type: cell-based
human GLP1R [4] = target: T2, human GLP1R; assay: Human GLP1R DERET recycling assay; assay type: cell-based; details: for Receptor recycled mean: maximum receptor recycled as proportion of amount internalized; for T1/2 mean: rate at which receptor recycled back to the membrane after Exendin 9-39
human GLP1R (hGLP1R) [5] = target: T1, human GLP1R (hGLP1R); assay: Human GLP1R β-arrestin recruitment assay (PathHunter); assay type: cell-based; design: GeneArt (insert) 93-0164 (CHO-K1-EA parental cells); 93-0491 (pCMV PK vector bundle); host or cells: PathHunter CHO-K1-EA parental cells, single clone 1; details: for EC50: CHO-hGLP1R-β-arrestin cells
Target sequence in this assay (P43220 24-463): as above
Target sequence in this assay (P32121 whole entry partner): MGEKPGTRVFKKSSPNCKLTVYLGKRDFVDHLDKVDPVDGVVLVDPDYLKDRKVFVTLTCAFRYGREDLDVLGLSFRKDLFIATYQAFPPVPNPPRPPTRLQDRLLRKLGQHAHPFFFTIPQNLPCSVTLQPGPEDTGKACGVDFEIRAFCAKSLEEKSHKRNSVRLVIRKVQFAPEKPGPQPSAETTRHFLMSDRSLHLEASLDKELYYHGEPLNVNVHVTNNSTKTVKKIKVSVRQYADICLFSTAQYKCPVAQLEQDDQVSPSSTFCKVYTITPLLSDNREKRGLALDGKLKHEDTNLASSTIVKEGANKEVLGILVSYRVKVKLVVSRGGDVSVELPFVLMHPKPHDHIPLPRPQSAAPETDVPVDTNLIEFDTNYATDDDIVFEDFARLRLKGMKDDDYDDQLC
Procedure: The extent to which agonists recruited β-arrestin was measured using the PathHunter® β-arrestin assay (DiscoverX). This assay measures binding of β-arrestin to the receptor using an enzyme complementation approach. […] When β-arrestin is recruited to the receptor the enzyme becomes active and generates luminescence in the presence of a chemiluminescent substrate (PathHunter® Detection Kit, DiscoverX cat #93-0001). Luminescence can be measured on a relevant detector. […] The following day, agonists were prepared at 5 times the final required concentration. To generate triplicate dose response curves, compounds were serially diluted 3-fold in assay buffer (HBSS, 10 mM Hepes and 0.1% BSA), then added to the cell assay plate to a final volume of 25 μL and final top concentrations starting at 3 μM or less, depending on the compound. […] The plate was incubated at 37° C., 5% CO2 with humidity for 2 h after adding the compounds to the cells. […] The plate was incubated for an additional hour in the dark at RT. […] Curve fitting for EC50 determinations was performed using GraphPad Prism. The 4-parameter logistic model, Hill slope was used: Y=Bottom+(Top−Bottom)/(1+10^((Log EC50−X)*Hill Slope)), where Y is the functional response; X is the compound concentration; bottom is A0 or the minimum value (at 0 dose); top is Ainf or the maximum value (at infinite dose); EC50 is the point of inflection (i.e., the point on the sigmoid shaped curve halfway between A0 and Ainf). The EC50 value was calculated in μM.

[6] = target: T3, human GLP1 receptor (hGLP1R) fused with a SNAP tag, on HEK293-SNAP-hGLP1R-GloSensor cells (human, UniProt P43220 24-463); assay: cell-based or functional assay
[7] = target: T3, human GLP1 receptor (hGLP1R) fused with …; assay: cell-based or functional assay; remark: listed apart in the source
[8] = target: human GLP1R (hGLP1R) with a Prolink tag, on CHO-hGLP1R-β-arrestin cells (human, UniProt P43220 24-463); assay: cell-based or functional assay
[9] = target: T4, mouse GLP1 receptor (mGLP1R), on HEK293-mGLP1R CRE-Luc (Clone C3) cells (mouse, UniProt O35659 22-463); assay: cell-based or functional assay
T4 sequence (looked up): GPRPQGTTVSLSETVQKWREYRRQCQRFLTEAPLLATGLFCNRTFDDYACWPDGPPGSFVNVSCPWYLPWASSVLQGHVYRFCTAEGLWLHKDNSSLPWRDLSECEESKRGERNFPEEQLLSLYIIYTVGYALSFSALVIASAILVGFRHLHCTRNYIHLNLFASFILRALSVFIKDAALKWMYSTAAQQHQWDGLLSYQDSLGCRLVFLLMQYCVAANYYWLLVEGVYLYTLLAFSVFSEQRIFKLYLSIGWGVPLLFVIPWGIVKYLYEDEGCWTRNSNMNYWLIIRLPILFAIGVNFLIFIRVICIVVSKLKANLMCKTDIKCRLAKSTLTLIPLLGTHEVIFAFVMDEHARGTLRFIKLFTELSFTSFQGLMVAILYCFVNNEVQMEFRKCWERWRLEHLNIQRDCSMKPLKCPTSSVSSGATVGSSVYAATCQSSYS

T2 sequence (P43220 24-463): as the sequence (P43220 24-463) above

Molecule: CC[C@H](C)[C@H](NC(=O)[C@H](Cc1ccccc1)NC(=O)[C@H](CCC(=O)O)NC(=O)[C@H](CCCCNC(=O)CCOCCOCCOCCOCCOCCOCCOCCOCCOCCOCCOCCOCCOCCOCCOCCOCCOCCOCCOCCOCCOCCOCCOCCOCCNC(=O)C(CCCCCCCCCCC(=O)O)(CCCCCCCCCCC(=O)O)C(=O)O)NC(=O)[C@H](C)NC(=O)[C@H](C)NC(=O)[C@H](CCC(N)=O)NC(=O)CNC(=O)[C@H](CCC(=O)O)NC(=O)[C@H](CC(C)C)NC(=O)[C@H](Cc1ccc(O)cc1)NC(=O)[C@H](CO)NC(=O)[C@H](CO)NC(=O)[C@@H](NC(=O)[C@H](CC(=O)O)NC(=O)[C@H](CO)NC(=O)[C@@H](NC(=O)[C@H](Cc1ccccc1)NC(=O)[C@@H](NC(=O)CNC(=O)[C@H](CCC(=O)O)NC(=O)C(C)(C)NC(=O)[C@@H](N)Cc1c[nH]cn1)[C@@H](C)O)[C@@H](C)O)C(C)C)C(=O)N[C@@H](C)C(=O)N[C@@H](Cc1c[nH]c2ccccc12)C(=O)N[C@@H](CC(C)C)C(=O)N[C@H](C(=O)N[C@@H](CCCNC(=N)N)C(=O)NCC(=O)N[C@@H](CCCNC(=N)N)C(=O)NCC(=O)O)C(C)C [Compound 6]
Emax (human GLP1R (hGLP1R) [2]): 111% | Emax (human GLP1R [3]): 92% | Receptor recycled mean (human GLP1R [4]): 70% | T1/2 mean (human GLP1R [4]): 69.1 min | Emax (human GLP1R (hGLP1R) [5]): 75% | EC50 (human GLP1R (hGLP1R) [5]): 70 nM

Molecule: CCCCCCCCCCCC(CCCCCCCCCCC(=O)O)(C(=O)O)C(=O)NCCOCCOCCOCCOCCOCCOCCOCCOCCC(=O)NCCCC[C@H](NC(=O)[C@H](C)NC(=O)[C@H](C)NC(=O)[C@H](CCC(N)=O)NC(=O)CNC(=O)[C@H](CCC(=O)O)NC(=O)[C@H](CC(C)C)NC(=O)[C@H](Cc1ccc(O)cc1)NC(=O)[C@H](CO)NC(=O)[C@H](CO)NC(=O)[C@@H](NC(=O)[C@H](CC(=O)O)NC(=O)[C@H](CO)NC(=O)[C@@H](NC(=O)[C@H](Cc1ccccc1)NC(=O)[C@@H](NC(=O)CNC(=O)[C@H](CCC(=O)O)NC(=O)C(C)(C)NC(=O)[C@@H](N)Cc1c[nH]cn1)[C@@H](C)O)[C@@H](C)O)C(C)C)C(=O)N[C@@H](CCC(=O)O)C(=O)N[C@@H](Cc1ccccc1)C(=O)N[C@H](C(=O)N[C@@H](C)C(=O)N[C@@H](Cc1c[nH]c2ccccc12)C(=O)N[C@@H](CC(C)C)C(=O)N[C@H](C(=O)N[C@@H](CCCNC(=N)N)C(=O)NCC(=O)N[C@@H](CCCNC(=N)N)C(=O)NCC(=O)O)C(C)C)[C@@H](C)CC (some centres unmarked) [Compound 4]
Emax (human GLP1R (hGLP1R) [2]): 119% | Emax (human GLP1R [3]): 100% | Receptor recycled mean (human GLP1R [4]): 65% | Emax (human GLP1R (hGLP1R) [5]): 84%

Molecule: CCCCCCCCCCCC(CCCCCCCCCCC(=O)O)(C(=O)O)C(=O)NCCOCCOCCOCCOCCOCCOCCOCCOCCOCCOCCOCCOCCOCCOCCOCCOCCOCCOCCOCCOCCOCCOCCOCCOCCC(=O)NCCCC[C@H](NC(=O)[C@H](C)NC(=O)[C@H](C)NC(=O)[C@H](CCC(N)=O)NC(=O)CNC(=O)[C@H](CCC(=O)O)NC(=O)[C@H](CC(C)C)NC(=O)[C@H](Cc1ccc(O)cc1)NC(=O)[C@H](CO)NC(=O)[C@H](CO)NC(=O)[C@@H](NC(=O)[C@H](CC(=O)O)NC(=O)[C@H](CO)NC(=O)[C@@H](NC(=O)[C@H](Cc1ccccc1)NC(=O)[C@@H](NC(=O)CNC(=O)[C@H](CCC(=O)O)NC(=O)C(C)(C)NC(=O)[C@@H](N)Cc1c[nH]cn1)[C@@H](C)O)[C@@H](C)O)C(C)C)C(=O)N[C@@H](CCC(=O)O)C(=O)N[C@@H](Cc1ccccc1)C(=O)N[C@H](C(=O)N[C@@H](C)C(=O)N[C@@H](Cc1c[nH]c2ccccc12)C(=O)N[C@@H](CC(C)C)C(=O)N[C@H](C(=O)N[C@@H](CCCNC(=N)N)C(=O)NCC(=O)N[C@@H](CCCNC(=N)N)C(=O)NCC(=O)O)C(C)C)[C@@H](C)CC (some centres unmarked) [Compound 1]
Emax (human GLP1R (hGLP1R) [2]): 105% | Receptor recycled mean (human GLP1R [4]): 65%

Molecule: CC[C@H](C)[C@H](NC(=O)[C@H](Cc1ccccc1)NC(=O)[C@H](CCC(=O)O)NC(=O)[C@H](CCCCNC(=O)CCOCCOCCOCCOCCOCCOCCOCCOCCOCCOCCOCCOCCOCCOCCOCCOCCOCCOCCOCCOCCOCCOCCOCCOCCNC(=O)C(CCCCCCCCCCCC(=O)O)(CCCCCCCCCCCC(=O)O)C(=O)O)NC(=O)[C@H](C)NC(=O)[C@H](C)NC(=O)[C@H](CCC(N)=O)NC(=O)CNC(=O)[C@H](CCC(=O)O)NC(=O)[C@H](CC(C)C)NC(=O)[C@H](Cc1ccc(O)cc1)NC(=O)[C@H](CO)NC(=O)[C@H](CO)NC(=O)[C@@H](NC(=O)[C@H](CC(=O)O)NC(=O)[C@H](CO)NC(=O)[C@@H](NC(=O)[C@H](Cc1ccccc1)NC(=O)[C@@H](NC(=O)CNC(=O)[C@H](CCC(=O)O)NC(=O)C(C)(C)NC(=O)[C@@H](N)Cc1c[nH]cn1)[C@@H](C)O)[C@@H](C)O)C(C)C)C(=O)N[C@@H](C)C(=O)N[C@@H](Cc1c[nH]c2ccccc12)C(=O)N[C@@H](CC(C)C)C(=O)N[C@H](C(=O)N[C@@H](CCCNC(=N)N)C(=O)NCC(=O)N[C@@H](CCCNC(=N)N)C(=O)NCC(=O)O)C(C)C [Compound 7]
Emax (human GLP1R [3]): 77% | Receptor recycled mean (human GLP1R [4]): 71% | T1/2 mean (human GLP1R [4]): 76.4 min | Emax (human GLP1R (hGLP1R) [5]): 82%

B2: Compound 3: Diastereomer 2 (peptide)
peptide: HXEGTFTSDVSSYLEGQAAKEFIAWLVRGRG
modifications: Aib at position 8 (GLP-1 numbering); side-chain NH of the Lys residue acylated, via a PEG24 linker, with (R)-2-undecyltridecanedioic acid (from NHS ester Intermediate 15B, R-enantiomer)
receptor internalization (DERET): EC50 mean [7]: 0.372 µM

B5: Compound 1 (Diastereomeric Mixture) (peptide)
peptide: B2 peptide
modifications: Aib at position 8 (GLP-1 numbering); side-chain NH of the Lys residue acylated, via a PEG24 linker, with 2-undecyltridecanedioic acid (from NHS ester Intermediate 6); diastereomeric mixture at the quaternary carbon of the fatty acid
hGLP1R cAMP assay (GloSensor): Emax mean, % of GLP1(7-36) [6]: 105% | β-arrestin recruitment (PathHunter): EC50 mean [8]: 0.192 µM

B7: Compound 2: Diastereomer 1 (peptide)
peptide: B2 peptide
modifications: Aib at position 8 (GLP-1 numbering); side-chain NH of the Lys residue acylated, via a PEG24 linker, with (S)-2-undecyltridecanedioic acid (from NHS ester Intermediate 15A, S-enantiomer)
β-arrestin recruitment (PathHunter): EC50 mean [8]: 0.133 µM | receptor internalization (DERET): EC50 mean [7]: 0.331 µM

More lines, now with the values ahead:

cynoGLP1R cAMP assay (HTRF): EC50 mean [1]: 49.1 pM
Molecule: semaglutide acetate salt (peptide)

cynoGLP1R cAMP assay (HTRF): EC50 mean [1]: 21.7 pM | cynoGLP1R cAMP assay (HTRF): Emax mean, % of GLP1(7-36) [1]: 100%
Molecule: GLP1(7-36) peptide (from UniProt P01275 98-127) (ligand)

Emax (human GLP1R (hGLP1R) [2]): 107% | Emax (human GLP1R [3]): 22% | EC50 (human GLP1R [3]; receptor internalization, HEK293-SNAP-hGLP1R-GloSensor cells): > 1000 nM | Emax (human GLP1R (hGLP1R) [5]): 37% | EC50 (human GLP1R (hGLP1R) [5]): > 2000 nM
Molecule: CC[C@H](C)[C@H](NC(=O)[C@H](Cc1ccccc1)NC(=O)[C@H](CCC(=O)O)NC(=O)[C@H](CCCCNC(=O)CCOCCOCCOCCOCCOCCOCCOCCOCCOCCOCCOCCOCCOCCOCCOCCOCCOCCOCCOCCOCCOCCOCCOCCOCCNC(=O)C(CCCCCCCCCCCCCCC(=O)O)(CCCCCCCCCCCCCCC(=O)O)C(=O)O)NC(=O)[C@H](C)NC(=O)[C@H](C)NC(=O)[C@H](CCC(N)=O)NC(=O)CNC(=O)[C@H](CCC(=O)O)NC(=O)[C@H](CC(C)C)NC(=O)[C@H](Cc1ccc(O)cc1)NC(=O)[C@H](CO)NC(=O)[C@H](CO)NC(=O)[C@@H](NC(=O)[C@H](CC(=O)O)NC(=O)[C@H](CO)NC(=O)[C@@H](NC(=O)[C@H](Cc1ccccc1)NC(=O)[C@@H](NC(=O)CNC(=O)[C@H](CCC(=O)O)NC(=O)C(C)(C)NC(=O)[C@@H](N)Cc1c[nH]cn1)[C@@H](C)O)[C@@H](C)O)C(C)C)C(=O)N[C@@H](C)C(=O)N[C@@H](Cc1c[nH]c2ccccc12)C(=O)N[C@@H](CC(C)C)C(=O)N[C@H](C(=O)N[C@@H](CCCNC(=N)N)C(=O)NCC(=O)N[C@@H](CCCNC(=N)N)C(=O)NCC(=O)O)C(C)C [Compound 9]

hGLP1R cAMP assay (GloSensor): EC50 mean [6]: 105 pM
B1: Compound 8 (peptide)
peptide: B2 peptide
modifications: Aib at position 8 (GLP-1 numbering); side-chain NH of the Lys residue acylated, via a PEG24 linker, with the 14-carbamoyl-heptacosane-1,14,27-tricarboxylic acid moiety (from NHS ester Intermediate 43)

β-arrestin recruitment (PathHunter): EC50 mean [8]: 0.178 µM | receptor internalization (DERET): EC50 mean [7]: 0.367 µM
B3: Compound 7 (peptide)
peptide: B2 peptide
modifications: Aib at position 8 (GLP-1 numbering); side-chain NH of the Lys residue acylated, via a PEG24 linker, with the 12-carbamoyl-tricosane-1,12,23-tricarboxylic acid moiety (from NHS ester Intermediate 36)

mGLP1R cAMP assay (HTRF): EC50 mean [9]: 686 pM | β-arrestin recruitment (PathHunter): EC50 mean [8]: > 2 µM | β-arrestin recruitment (PathHunter): Emax mean, % of GLP1(7-36) [8]: 37% | receptor internalization (DERET): Emax mean, % of GLP1(7-36) [7]: 22%
B4: Compound 9 (peptide)
peptide: B2 peptide
modifications: Aib at position 8 (GLP-1 numbering); side-chain NH of the Lys residue acylated, via a PEG24 linker, with the 15-carbamoyl-nonacosane-1,15,29-tricarboxylic acid moiety (from NHS ester Intermediate 50)

mGLP1R cAMP assay (HTRF): EC50 mean [9]: 428 pM | β-arrestin recruitment (PathHunter): EC50 mean [8]: 0.235 µM
B6: Compound 4 (peptide)
peptide: B2 peptide
modifications: Aib at position 8 (GLP-1 numbering); side-chain NH of the Lys residue acylated, via a PEG8 linker, with 2-undecyltridecanedioic acid (from NHS ester Intermediate 19)
